Assay results: the supplement of paper PMC13380429

What was measured:
Conditions in all cases: 72 h
Caco-2 [1] = assay: cell viability relative to DMSO; higher = less toxic
Calu-3 [2] = assay: as above
HepG2 [3] = assay: as above
U2OS [4] = assay: as above
Vero E6 [5] = assay: as above
Caco-2 [6] = assay: relative viability EC50 (midpoint between 100% and the lowest measured viability); higher = less toxic
Calu-3 [7] = assay: as above
HepG2 [8] = assay: as above
U2OS [9] = assay: as above
Vero E6 [10] = assay: as above
Caco-2 [11] = assay: drug sensitivity score (DSS) for viability; higher = more toxic; extreme values may be limits of the assay
Calu-3 [12] = assay: as above
HepG2 [13] = assay: as above
U2OS [14] = assay: as above
Vero E6 [15] = assay: as above

SMILES	cell viability (Caco-2 [1]; 1 nM) [%]	cell viability (Caco-2 [1]; 10 nM) [%]	cell viability (Caco-2 [1]; 100 nM) [%]	cell viability (Caco-2 [1]; 1000 nM) [%]	cell viability (Caco-2 [1]; 10000 nM) [%]	cell viability (Calu-3 [2]; 1 nM) [%]	cell viability (Calu-3 [2]; 10 nM) [%]	cell viability (Calu-3 [2]; 100 nM) [%]	cell viability (Calu-3 [2]; 1000 nM) [%]	cell viability (Calu-3 [2]; 10000 nM) [%]	cell viability (HepG2 [3]; 1 nM) [%]	cell viability (HepG2 [3]; 10 nM) [%]	cell viability (HepG2 [3]; 100 nM) [%]	cell viability (HepG2 [3]; 1000 nM) [%]	cell viability (HepG2 [3]; 10000 nM) [%]	cell viability (U2OS [4]; 1 nM) [%]	cell viability (U2OS [4]; 10 nM) [%]	cell viability (U2OS [4]; 100 nM) [%]	cell viability (U2OS [4]; 1000 nM) [%]	cell viability (U2OS [4]; 10000 nM) [%]	cell viability (Vero E6 [5]; 1 nM) [%]	cell viability (Vero E6 [5]; 10 nM) [%]	cell viability (Vero E6 [5]; 100 nM) [%]	cell viability (Vero E6 [5]; 1000 nM) [%]	cell viability (Vero E6 [5]; 10000 nM) [%]	relative viability EC50 (Caco-2 [6]) [µM]	relative viability EC50 (Calu-3 [7]) [µM]	relative viability EC50 (HepG2 [8]) [µM]	relative viability EC50 (U2OS [9]) [µM]	relative viability EC50 (Vero E6 [10]) [µM]	drug sensitivity score (Caco-2 [11])	drug sensitivity score (Calu-3 [12])	drug sensitivity score (HepG2 [13])	drug sensitivity score (U2OS [14])	drug sensitivity score (Vero E6 [15])
O=C1CCc2cc(OCCCCc3nnnn3C3CCCCC3)ccc2N1 [cilostazol]	97.5	104	99.7	101	90.3	94.3	107	99.1	115	111	114	99.9	110	99.4	92.6	93.2	96.9	94	96.5	95	91.5	99	96.9	101	95.7	> 10	> 10	> 10	> 10	> 10	0	0	0	0	0
Cc1cc(C(C)(C)C)cc(C)c1CC1=NCCN1 [xylometazoline]	100	74.7	99.8	97.6	105	98.6	92.4	108	92	108	107	93.4	89.6	116	101	98.5	93.2	102	97.3	103	112	98.2	97.3	112	89.8	> 10	> 10	> 10	> 10	> 10	0	0	0	0	0
COc1ccc(OC[C@@H]2c3cc(OC)c(OC)cc3CCN2C(=O)c2cccc(Cl)c2)cc1 [CIQ]	101	102	91.8	101	76.4	100	102	100	109	92.7	101	96.5	91.4	89.9	106	96.6	100	93.9	104	91.3	100	97.4	93.7	94	98.6	> 10	> 10	> 10	> 10	> 10	0.8	0	0	0	0
CC(=O)OCC(=O)[C@H]1CC[C@H]2[C@@H]3CCC4=CC(=O)CC[C@]4(C)[C@H]3CC[C@]12C [deoxycorticosterone-acetate]	85.4	114	100	122	101	98.4	99.8	100	91.9	107	107	110	95.9	91.5	107	96.8	100	103	102	99.2	100	99.8	96.2	98.7	91.7	> 10	> 10	> 10	> 10	> 10	0	0	0	0	0
CCCCCCCCCCCCc1ccc(S(=O)(=O)Nc2nncs2)cc1 [PHT-427]	95.2	95.3	101	98.1	97.4	96.4	94.9	95.6	99.6	99	93.6	106	88.1	102	92.6	102	97.5	98.2	98.7	99.9	106	108	102	97.8	104	> 10	> 10	> 10	> 10	> 10	0	0	0	0	0
CNC[C@H](O)[C@@H](O)[C@H](O)[C@H](O)CO [meglumine]	92.6	76.1	95.3	104	95.1	108	95.7	99.4	88.2	97.7	89.7	93.5	81.5	98.1	85	98.3	92.8	104	90.8	99	88.3	91.3	93.9	99.5	96.5	> 10	> 10	> 10	> 10	> 10	0	0	0	0	0
COc1cc2c(Oc3ccc(NC(=O)C4(C(=O)Nc5ccc(F)cc5)CC4)cc3F)ccnc2cc1OCCCN1CCOCC1 [foretinib]	102	98.6	97.2	70.3	5.3	99.7	98.6	96.9	84.7	5.1	94.7	95.7	101	47.8	0.1	103	99.1	94.2	75.1	0	102	97.9	102	74.3	0.2	1.37	1.92	0.965	1.55	1.52	9.5	7.8	11.9	9.3	9.4
NC(=O)c1[nH]cnc1O [SM-108]	91.2	101	102	104	97.9	96.2	89	101	107	99.8	95	93.9	95.8	102	98.7	100	95.7	104	96.6	104	102	108	99.7	103	100	> 10	> 10	> 10	> 10	> 10	0	0	0	0	0
Cc1ccc(S(=O)(=O)Nc2nc3ccccc3nc2Nc2ccc3nsnc3c2)cc1 [XL147]	96.1	107	98.6	105	92.9	93.3	113	98.6	88.6	97.6	107	101	90.9	97.7	99.5	96	103	104	99.2	95.1	93.7	94.1	100	96.3	95.2	> 10	> 10	> 10	> 10	> 10	0	0.4	0	0	0
CN1CCN(c2nc(C3=C(c4c[nH]c5ccccc45)C(=O)NC3=O)c3ccccc3n2)CC1 [sotrastaurin]	96.3	102	99.1	86.8	89.7	101	94.6	96	97.6	98.6	108	107	101	104	92.6	95.6	94	103	95	94.1	96.1	99.4	100	99.3	101	> 10	> 10	> 10	> 10	> 10	0.9	0	0	0	0
Cc1c(C)c2c(c(C)c1O)CC[C@@](C)(CCC[C@H](C)CCC[C@H](C)CCCC(C)C)O2 [vitamin-E]	101	89.8	97.1	94.8	98.5	98.9	82.6	102	99.3	91.7	93.6	100	91	106	108	99.9	95.1	103	94.9	97.2	86.5	99.4	88.5	101	103	> 10	> 10	> 10	> 10	> 10	0	0	0	0	0
CCC(Cc1c(I)cc(I)c(N)c1I)C(=O)O (stereo not given) [iopanic-acid]	110	107	98.8	85.8	113	101	91.4	96.4	102	108	106	112	100	110	99	99.7	95.6	97.9	96.7	97.1	109	103	104	102	93	> 10	> 10	> 10	> 10	> 10	0	0	0	0	0
CC(C)c1ccc(NC(=O)Cn2cnc3c2c(=O)n(C)c(=O)n3C)cc1	100	96	92.5	89.1	95.9	87	81.2	92.9	90	94.8	97.3	106	93.4	112	98.5	99.7	97.2	101	100	98.2	91.6	107	98.7	102	101	> 10	> 10	> 10	> 10	> 10	0	0	0	0	0
CC(C)(Oc1ccc(Cl)cc1)C(=O)OCCOC(=O)c1cccnc1 [etofibrate]	95.3	88.1	94	92.1	105	86.8	89.6	99.1	111	101	92.7	106	96	99.1	111	101	94.1	102	94.9	96.6	93.5	99.7	91.7	93.9	98.5	> 10	> 10	> 10	> 10	> 10	0	0	0	0	0
CN(C)CCCSc1ccccc1NC(=O)/C=C/c1ccccc1 [cinanserin]	92.4	95	94.4	97.3	102	108	98.6	98.1	90.7	98.9	94.3	94.1	101	102	85.8	108	99.6	98.5	97.2	97.6	99.4	99.9	97	101	87.9	> 10	> 10	> 10	> 10	> 10	0	0	0.1	0	0
